This note sets out measurements from ChEMBL document CHEMBL1154563, “Flavonol-cinnamate cycloadducts and diamide derivatives from Aglaia laxiflora” (J Nat Prod, 2000).

The test system of assay [1] is P388. The assay is described as follows: Cytotoxicity against mouse P388 cells. It is filed as functional, cell-based.
The test system of assay [2] is MOLT-4. Kind of assay: Cytotoxicity against human MOLT4 cells. It is filed as functional, cell-based.
The test system of assay [3] is Jurkat. The assay is described as follows: Cytotoxicity against human Jurkat cells. It is filed as functional, cell-based.
A short description of assay [4]: Cytotoxicity against mouse LL/2 cells. It is filed as functional, cell-based, Lewis lung carcinoma.
Assay [5] concerns WEHI-164. The assay is described as follows: Cytotoxicity against mouse WEHI164 cells. It is filed as functional, cell-based.

One may read the IC50 as the concentration needed to halve the response being measured.

Converted amounts (≈) assume the structure as drawn. The source made the active and inactive calls. No cut-off for these calls is given here.

As to `CC[C@@](C)(O)C(=O)N[C@@H]1CCCN1C(=O)[C@@H]1[C@@H](c2ccccc2)[C@]2(c3ccc(OC)cc3)Oc3cc(OC)cc(OC)c3[C@@]1(O)[C@H]2OC(C)=O`, the result in assay [1] and in assay [2] was inactive.

As to `COc1cc(OC)c2c(c1)O[C@@]1(c3ccc(OC)c(O[C@@H]4O[C@H](C)[C@@H](O)[C@H](OC)[C@@H]4OC(C)=O)c3)[C@H](c3ccccc3)C[C@@H](O)[C@@]21O`, the results for the IC50 in assay [1] (p388), in assay [3] and in assay [4] (lewis lung carcinoma) were 0.036 µg/mL (≈ 0.0552 µM), 0.0022 µg/mL (≈ 0.00337 µM) and 0.0042 µg/mL (≈ 0.00643 µM), respectively.

Regarding `CC[C@@](C)(O)C(=O)N[C@@H]1CCCN1C(=O)[C@@H]1[C@@H](c2ccccc2)[C@@]2(O)c3c(OC)cc(OC)cc3O[C@]1(c1ccc(OC)cc1)[C@H]2OC(C)=O`, the result in assay [1] and in assay [2] was inactive.

Regarding `CC[C@@](C)(O)C(=O)N[C@@H]1CCCN1C(=O)[C@H]1[C@H](c2ccccc2)[C@]2(c3ccc(OC)cc3)Oc3cc(OC)cc(OC)c3[C@@]1(O)[C@H]2OC(C)=O`, the outcome in assay [1] and in assay [2] was inactive.

As to `COc1ccc([C@@]23Oc4cc(OC)cc(OC)c4[C@]2(O)[C@H](O)C[C@H]3c2ccccc2)cc1` [ROCAGLAOL], the IC50 in assay [5] was 0.023 µg/mL (≈ 0.0529 µM); in assay [1] (Mus musculus, P388, read-out: IC50) it was less than 0.01 µg/mL; in assay [4] (Mus musculus, Lewis lung carcinoma, read-out: IC50), 0.034 µg/mL (≈ 0.0783 µM).

In the case of `CC[C@@](C)(O)C(=O)N[C@@H]1CCCN1C(=O)[C@@H]1[C@@H](c2ccccc2)[C@@]2(O)c3c(OC)cc(OC)cc3O[C@]1(c1ccc(OC)cc1)[C@H]2O`, the outcome in assay [1] and in assay [2] was inactive.
